In patent US10065953B2, “Imidazo[1,2-A]pyridine derivatives for use as inhibitors of human immunodeficiency virus replication” (priority 2014, dated 2018) one finds EC50 data, which are given here for 19 compounds.

Structures can show the parent of a compound that is named as a salt.

The first assay deals with recombinant NL-Rluc virus. As to the kind of experiment: Inhibition of HIV replication (NL-RLuc luciferase reporter virus in MT-2 cells). In kind it is cell-based. The settings on record: Human immunodeficiency virus 1, MT2, 120 h, MT-2 cells infected with NL-RLuc virus, 5 days of incubation, luciferase readout; serum condition of the table not specified. A general note: A reporter such as luciferase makes a cellular process visible.
Broadly, the EC50 is the concentration giving half of the maximal effect. In the case of `Cc1cc2nc(-c3cccc(-c4cc(C(F)(F)F)nn4C)c3)cn2c(N2CCC(C)(C)CC2)c1[C@H](OC(C)(C)C)C(=O)O` [Example 11, (S)-2-(tert-Butoxy)-2-(5-(4,4-dimethylpiperidin-1-yl)-7-methyl-2-(3-(1-methyl-3-(trifluoromethyl)-1H-pyrazol-5-yl)phenyl)imidazo[1,2-a]pyridin-6-yl)acetic Acid], the EC50 was determined as 0.021 µM. The same measure, in the same setting: the value for `Cc1cc2nc(-c3cccc(-c4cnn(C)c4)c3)cn2c(N2CCC(C)(C)CC2)c1[C@H](OC(C)(C)C)C(=O)O` [Example 9, (S)-2-(tert-Butoxy)-2-(5-(4,4-dimethylpiperidin-1-yl)-7-methyl-2-(3-(1-methyl-1H-pyrazol-4-yl)phenyl)imidazo[1,2-a]pyridin-6-yl)acetic Acid] was 0.006 µM; that for `Cc1ccc(-c2cccc(-c3cn4c(N5CCC(C)(C)CC5)c([C@H](OC(C)(C)C)C(=O)O)c(C)cc4n3)c2)cc1` [Example 2, (S)-2-(tert-butoxy)-2-(5-(4,4-dimethylpiperidin-1-yl)-7-methyl-2-(4′-methyl-[1,1′-biphenyl]-3-yl)imidazo[1,2-a]pyridin-6-yl)acetic Acid] was 0.032 µM; that for `Cc1cc2nc(-c3cccc(-c4ccc(F)cc4F)c3)cn2c(N2CCC(C)(C)CC2)c1[C@H](OC(C)(C)C)C(=O)O` [Example 5, (S)-2-(tert-Butoxy)-2-(2-(2′,4′-difluoro-[1,1′-biphenyl]-3-yl)-5-(4,4-dimethylpiperidin-1-yl)-7-methylimidazo[1,2-a]pyridin-6-yl)acetic Acid] was 0.029 µM. `Cc1cc2nc(-c3cccc(-c4ccccc4)c3)cn2c(N2CCC(C)(C)CC2)c1[C@H](OC(C)(C)C)C(=O)O` [Example 1, (S)-2-(2-([1,1′-Biphenyl]-3-yl)-5-(4,4-dimethylpiperidin-1-yl)-7-methylimidazo[1,2-a]pyridin-6-yl)-2-(tert-butoxy)acetic Acid]: the EC50 amounted to 0.051 µM. Turning to `Cc1ccc(-c2cccc(-c3cn4c(N5CCC(C)(C)CC5)c([C@H](OC(C)(C)C)C(=O)O)c(C)cc4n3)c2)c(F)c1` [Example 6, (S)-2-(tert-Butoxy)-2-(5-(4,4-dimethylpiperidin-1-yl)-2-(2′-fluoro-4′-methyl-[1,1′-biphenyl]-3-yl)-7-methylimidazo[1,2-a]pyridin-6-yl)acetic Acid], the EC50 was 0.021 µM. Same read-out and setting: the value for `Cc1cc(-c2cccc(-c3cn4c(N5CCC(C)(C)CC5)c([C@H](OC(C)(C)C)C(=O)O)c(C)cc4n3)c2)n(C)n1` [Example 10, (S)-2-(tert-Butoxy)-2-(2-(3-(1,3-dimethyl-1H-pyrazol-5-yl)phenyl)-5-(4,4-dimethylpiperidin-1-yl)-7-methylimidazo[1,2-a]pyridin-6-yl)acetic Acid] was 0.007 µM.

Consider `Cc1cc2nc(-c3cccc(-c4ccc(F)cc4)c3)cn2c(-c2ccc3c(c2)C(C)(C)CCO3)c1[C@H](OC(C)(C)C)C(=O)O` [Example 19, (S)-2-(tert-Butoxy)-2-(5-(4,4-dimethylchroman-6-yl)-2-(4′-fluoro-[1,1′-biphenyl]-3-yl)-7-methylimidazo[1,2-a]pyridin-6-yl)acetic Acid], for which the EC50 turned out to be 0.095 µM.

On to `Cc1cc2nc(-c3cccc(-c4cccc(C#N)c4)c3)cn2c(N2CCC(C)(C)CC2)c1[C@H](OC(C)(C)C)C(=O)O` [Example 7, (S)-2-(tert-Butoxy)-2-(2-(3′-cyano-[1,1′-biphenyl]-3-yl)-5-(4,4-dimethylpiperidin-1-yl)-7-methylimidazo[1,2-a]pyridin-6-yl)acetic Acid], for which the EC50 was found to be 0.006 µM. On the same count and under the same terms, the value for `Cc1cc2nc(-c3cccc(-c4cnn(Cc5ccccc5)c4)c3)cn2c(N2CCC(C)(C)CC2)c1[C@H](OC(C)(C)C)C(=O)O` [Example 8, (S)-2-(2-(3-(1-Benzyl-1H-pyrazol-4-yl)phenyl)-5-(4,4-dimethylpiperidin-1-yl)-7-methylimidazo[1,2-a]pyridin-6-yl)-2-(tert-butoxy)acetic Acid] was 0.022 µM. Still for that read-out and setting: the value for `Cc1cc2nc(-c3cccc(-c4ccc(F)cc4)c3)cn2c(-c2ccc(F)cc2)c1[C@H](OC(C)(C)C)C(=O)O` [Example 17, (S)-2-(tert-Butoxy)-2-(2-(4′-fluoro-[1,1′-biphenyl]-3-yl)-5-(4-fluorophenyl)-7-methylimidazo[1,2-a]pyridin-6-yl)acetic Acid] was 0.159 µM; that for `Cc1cc2nc(-c3cccc(-c4cccc(F)c4)c3)cn2c(N2CCC(C)(C)CC2)c1[C@H](OC(C)(C)C)C(=O)O` [Example 4, (S)-2-(tert-butoxy)-2-(5-(4,4-dimethylpiperidin-1-yl)-2-(3′-fluoro-[1,1′-biphenyl]-3-yl)-7-methylimidazo[1,2-a]pyridin-6-yl)acetic Acid] was 0.021 µM. On the same count and under the same terms, the value for `Cc1ccc(-c2c([C@H](OC(C)(C)C)C(=O)O)c(C)cc3nc(-c4cccc(-c5ccc(F)cc5)c4)cn23)cc1` [Example 14, (S)-2-(tert-butoxy)-2-(2-(4′-fluoro-[1,1′-biphenyl]-3-yl)-7-methyl-5-(p-tolyl)imidazo[1,2-a]pyridin-6-yl)acetic Acid] was 0.02 µM; that for `Cc1cc2nc(-c3cccc(-c4ccc(F)cc4)c3)cn2c(-c2ccc3c(c2)CCCO3)c1[C@H](OC(C)(C)C)C(=O)O` [Example 18, (S)-2-(tert-Butoxy)-2-(5-(chroman-6-yl)-2-(4′-fluoro-[1,1′-biphenyl]-3-yl)-7-methylimidazo[1,2-a]pyridin-6-yl)acetic Acid] was 0.007 µM; that for `Cc1cc2nc(-c3cccc(-c4ccc(F)cc4)c3)cn2c(N2CCC(C)(C)CC2)c1[C@H](OC(C)(C)C)C(=O)O` [Example 3, (S)-2-(tert-Butoxy)-2-(5-(4,4-dimethylpiperidin-1-yl)-2-(4′-fluoro-[1,1′-biphenyl]-3-yl)-7-methylimidazo[1,2-a]pyridin-6-yl)acetic Acid] was 0.026 µM.

Staying with this assay, now noted: MT-2 cells infected with NL-RLuc virus, 5 days of incubation, luciferase readout; serum condition of the table not specified.
Turning to `Cc1cc2nc(-c3cccc(-c4ccc(F)cc4)c3)cn2c(-c2ccc3c4c(ccnc24)CCO3)c1[C@H](OC(C)(C)C)C(=O)O` [Example 13, (2S)-2-(tert-Butoxy)-2-(5-(2,3-dihydropyrano[4,3,2-de]quinolin-7-yl)-2-(4′-fluoro-[1,1′-biphenyl]-3-yl)-7-methylimidazo[1,2-a]pyridin-6-yl)acetic Acid.TFA], the EC50 was 0.398 µM.

For `Cc1cc2nc(-c3cccc(-c4ccc(F)cc4)c3)cn2c(-c2cc(F)c3c(c2C)CCCO3)c1[C@H](OC(C)(C)C)C(=O)O` [Example 16, (2S)-2-(tert-Butoxy)-2-(5-(8-fluoro-5-methylchroman-6-yl)-2-(4′-fluoro-[1,1′-biphenyl]-3-yl)-7-methylimidazo[1,2-a]pyridin-6-yl)acetic Acid], the EC50 is 0.004 µM. On the same count and under the same terms, the value for `Cc1cc2nc(-c3cccc(-c4ccc(F)cc4)c3)cn2c(-c2cc(F)c3c(c2C)CCCO3)c1[C@H](OC(C)(C)C)C(=O)O` [Example 15, (2S)-2-(tert-Butoxy)-2-(5-(8-fluoro-5-methylchroman-6-yl)-2-(4′-fluoro-[1,1′-biphenyl]-3-yl)-7-methylimidazo[1,2-a]pyridin-6-yl)acetic Acid] was 0.175 µM.

Regarding `Cc1cc2nc(-c3cccc(-c4ccc(F)cc4)c3)cn2c(-c2ccc3c4c(ccnc24)CCO3)c1[C@H](OC(C)(C)C)C(=O)O` [Example 12, (2S)-2-(tert-Butoxy)-2-(5-(2,3-dihydropyrano[4,3,2-de]quinolin-7-yl)-2-(4′-fluoro-[1,1′-biphenyl]-3-yl)-7-methylimidazo[1,2-a]pyridin-6-yl)acetic Acid.TFA], the EC50 was 0.019 µM.
